According to article PMC4977651, “Molecular features of biguanides required for targeting of mitochondrial respiratory complex I and activation of AMP-kinase” (BMC Biology, 2016):
Where “and” joins values, the source holds several entries; their conditions need not be identical. Identical values can stand only once. Like-named read-outs stand apart in the source and are kept apart here.

Tests used:
[1] = target: mouse heart mitochondrial membranes (complex I) (Mus musculus, UniProt P03888+P03899+Q91WD5+Q9DC70); assay: NADH:O2 oxidoreduction by mouse heart mitochondrial membranes; type: biochemical; settings: for LogIC50 (best fit value): log of IC50 in mM
Experimental: (§1) Complex I and mitochondrial membranes were prepared from Bos taurus (bovine) heart. Intact mitochondria were isolated from rat liver and mouse heart and liver. Membranes were prepared from mouse heart mitochondria by 5 s bursts of sonication at 4 °C and collected by centrifugation (75,000 × g, 1 h).
Assays were performed at 32 °C in a SpectraMax 96-well plate reader. NADH:decylubiquinone oxidoreduction by complex I at 0.5 μg mL^−1 was measured in 20 mM Tris-HCl (pH 7.2), 0.15 % soy bean asolectin (Avanti Polar Lipids), and 0.15 % 3-((3-cholamidopropyl)dimethylammonium)-1-propanesulfonate (CHAPS, Merck Chemicals Ltd), with 200 μM decylubiquinone and 200 μM NADH, and monitored using ε340–380(NADH) = 4.81 mM^−1 cm^−1 [23]. Catalysis was initiated by addition of NADH and maximal rates determined by linear regression. NADH:O2 oxidoreduction by membranes was measured similarly but using 5 μg mL^−1 membranes in 10 mM Tris-HCl (pH 7.4) and 250 mM sucrose using 200 μM NADH and supplemented with 0.15 mM horse heart cytochrome c (Sigma-Aldrich Ltd.). Succinate:O2 oxidoreduction was measured using 40 μg mL^−1 membranes in 5 mM succinate in 10 mM Tris-HCl (pH 7.4) as described previously. Control experiments included NaCl (to match the ionic strength) or DMSO, as appropriate.
Experimental values are reported as mean averages ± standard deviation (SD) of technical replicates for large sample sizes and mean averages ± standard error of the mean (SEM) of technical replicates for small sample sizes. Data were analyzed by the unpaired two-tailed Student’s t test. IC50 values were determined using the standard dose-effect relationship (activity (%) = 100 × IC50 / (IC50 + [inhibitor]^m) with the Hill Slope (m) set to unity for purified complex I) and are reported with 95 % confidence intervals.

mouse heart mitochondria = assay: ADP-stimulated rotenone-sensitive OCR in isolated mouse heart mitochondria; type: biochemical; design: rotenone sensitive OCR after ADP stimulation, individual replicates / rotenone sensitive OCR after ADP stimulation, average / rotenone sensitive OCR after 15 mins, average: unit not given here; settings: for rotenone sensitive OCR after ADP stimulation, % of control, average / rotenone sensitive OCR after ADP stimulation, average: average of replicates; for rotenone sensitive OCR after ADP stimulation, % of control, individual replicates: replicate 1-11; for rotenone sensitive OCR after ADP stimulation, individual replicates: replicate 1-12
Experimental: as §1
Isolated mitochondria were monitored using a Seahorse XF96 extracellular flux analyzer at 32 °C. Mouse heart mitochondria, and mouse and rat liver mitochondria were plated into XF96 plates at 4 and 16–20 μg per well, respectively, in 220 mM mannitol, 70 mM sucrose, 10 mM KH2PO4, 5 mM MgCl2, 1 mM EGTA, 0.2 % fatty acid-free BSA, and 2 mM HEPES (pH 7.4 at 37 °C) with 10 mM glutamate and 10 mM malate and adhered by centrifugation (2000 × g, 20 min, 4 °C). The medium was supplemented with a further 5 mM glutamate and 5 mM malate and the mitochondria incubated for 15 min. Then two baseline readings were taken before the biguanides were added at IC50/5. […] Rotenone (2 μM) was added at the end of the experiment. Data from wells with failed port injections were excluded from the analyses. The RCR values (state III versus state IV respiration) were 3.4, 4.8, and 4.6 for mouse heart, rat liver, and mouse liver, respectively.

permeabilized 143B cells = assay: ADP-stimulated rotenone-sensitive OCR in permeabilized 143B cells; type: cell-based, human; design: rotenone sensitive OCR after ADP stimulation, individual replicates / rotenone sensitive OCR after ADP stimulation, average: unit not given here; settings: for rotenone sensitive OCR after ADP stimulation, % of control, average / rotenone sensitive OCR after ADP stimulation, average / rotenone sensitive OCR after ADP stimulation, % of control, individual replicates / rotenone sensitive OCR after ADP stimulation, individual replicates: 143B permeabilised cells; for rotenone sensitive OCR after ADP stimulation, % of control, average / rotenone sensitive OCR after ADP stimulation, average: average of replicates; for rotenone sensitive OCR after ADP stimulation, % of control, individual replicates / rotenone sensitive OCR after ADP stimulation, individual replicates: replicate 1-11
Experimental: For permeabilized cell experiments, cells were seeded into XF96 plates at 0.9–1.1 × 10^4 per well and incubated for 48 h at 37 °C in 5 % CO2. Then, the growth medium was exchanged for assay buffer containing 3 nM plasma membrane permeabilizer ‘PMP’ (Seahorse Biosciences Inc.), 10 mM glutamate, 10 mM malate, 220 mM mannitol, 70 mM sucrose, 10 mM KH2PO4, 5 mM MgCl2, 1 mM EGTA, 0.2 % fatty acid-free bovine serum albumin (BSA), and 2 mM HEPES (pH 7.4 at 37 °C). […] The biguanides were allowed to accumulate for 30 min, then respiration was […] by the addition of 4 mM ADP. Rotenone was added (2 μM) at the end of the experiment.
(§2) Rotenone-sensitive OCRs were calculated by subtracting the rotenone-insensitive rates (determined at the end of the experiment). OCRs were normalized by dividing by the OCR recorded immediately prior to the addition of biguanide. For rate of uptake calculations, the OCRs at time points after biguanide addition were divided by the OCRs at the same time points in control experiments. Data from wells with failed port injections were excluded from the analyses. The respiratory control ratio (RCR) values (state III versus state IV respiration) were ~11 and ~6 for permeabilized MDBK and 143B cells, respectively.

143B cells = assay: Rotenone-sensitive oxygen consumption rate in intact 143B cells; type: cell-based, human; settings: for rotenone sensitive OCR after 6 hours of biguanide exposure, % control, average / rotenone sensitive OCR after 6 hours of biguanide exposure, average: biguanide at IC50/10; for rotenone sensitive OCR after 6 hours of biguanide exposure, average: OCR normalized to OCR immediately prior to biguanide addition; for inhibition of rotenone-sensitive respiration (in words): intact 143B cells, biguanide at IC50/10, monitored for 6 h
Experimental: 143B (CRL-8303 from ATCC), HepG2 (85011430 from The Health Protection Agency), and MDBK (CCL-22 from ATCC) cells were grown on Dulbecco’s modified Eagle’s medium (DMEM) supplemented with 10 % fetal bovine serum (FBS, Thermo Fisher Scientific) at 37 °C in 5 % CO2. All cells were confirmed as negative for mycoplasma.
Oxygen consumption rates (OCRs) were measured using a Seahorse XF96 extracellular flux analyzer at 37 °C. For intact cell measurements, 1.4 × 10^4 143B, HepG2, or MDBK cells were plated (per well) in DMEM containing 10 % FBS into Seahorse Bioscience Inc. XF96 plates and incubated for ~12 h at 37 °C in 5 % CO2. Then, the medium was exchanged for assay buffer containing DMEM, 4.5 g L^−1 glucose, 1 mM pyruvate, 32 mM NaCl, 2 mM GlutaMAX, 15 mg L^−1 phenol red, and 20 mM HEPES (pH 7.4 at 37 °C) and the cells placed in a CO2-free incubator at 37 °C for 30 min. Basal oxygen consumption rates were established before the addition of biguanides at one-tenth of their IC50 (IC50/10), and followed for ~ 6 h before the addition of rotenone (2 μM).
as §2

[2] = Prism variable slope fit, Bottom 0, Top 100, read-out: IC50 (best fit value)

Chain of mouse heart mitochondrial membranes (complex I) (P03899 whole entry): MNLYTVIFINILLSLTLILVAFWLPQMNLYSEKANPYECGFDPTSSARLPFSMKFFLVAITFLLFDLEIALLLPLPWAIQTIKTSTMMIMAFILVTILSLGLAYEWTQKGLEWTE
Chain of mouse heart mitochondrial membranes (complex I) (P03888 whole entry): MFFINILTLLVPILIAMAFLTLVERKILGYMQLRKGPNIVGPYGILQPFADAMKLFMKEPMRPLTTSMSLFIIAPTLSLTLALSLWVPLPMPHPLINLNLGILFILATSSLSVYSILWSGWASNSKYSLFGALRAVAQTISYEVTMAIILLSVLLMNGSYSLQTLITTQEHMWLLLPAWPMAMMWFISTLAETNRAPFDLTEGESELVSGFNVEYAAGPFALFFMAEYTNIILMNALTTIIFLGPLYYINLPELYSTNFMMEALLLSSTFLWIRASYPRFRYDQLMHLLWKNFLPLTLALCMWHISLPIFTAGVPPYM
Chain of mouse heart mitochondrial membranes (complex I) (Q9DC70 36-224): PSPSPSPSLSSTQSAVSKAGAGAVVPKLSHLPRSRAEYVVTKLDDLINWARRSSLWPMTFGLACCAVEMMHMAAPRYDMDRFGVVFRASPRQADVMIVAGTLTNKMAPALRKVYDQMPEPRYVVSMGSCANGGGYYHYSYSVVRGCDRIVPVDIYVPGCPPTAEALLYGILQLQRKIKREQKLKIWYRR
Chain of mouse heart mitochondrial membranes (complex I) (Q91WD5 34-463): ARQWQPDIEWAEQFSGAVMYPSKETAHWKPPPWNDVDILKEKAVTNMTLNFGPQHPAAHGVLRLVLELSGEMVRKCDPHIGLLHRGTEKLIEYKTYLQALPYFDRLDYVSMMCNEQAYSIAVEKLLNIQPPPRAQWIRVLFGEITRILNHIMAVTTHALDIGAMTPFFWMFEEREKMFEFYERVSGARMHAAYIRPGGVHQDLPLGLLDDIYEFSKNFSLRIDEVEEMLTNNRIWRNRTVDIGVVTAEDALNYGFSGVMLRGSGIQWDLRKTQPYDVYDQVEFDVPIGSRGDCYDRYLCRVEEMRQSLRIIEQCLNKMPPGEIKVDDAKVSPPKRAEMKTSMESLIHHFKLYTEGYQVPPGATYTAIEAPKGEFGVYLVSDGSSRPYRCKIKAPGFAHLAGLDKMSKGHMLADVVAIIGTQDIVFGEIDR

| Compound | HillSlope (best fit value) ([1]; Prism variable slope fit) | IC50 [1, 2] | LogIC50 (best fit value) ([1]; Prism variable slope fit) | rotenone sensitive OCR after ADP stimulation, % of control, average (mouse heart mitochondria) | rotenone sensitive OCR after ADP stimulation, average (mouse heart mitochondria) | rotenone sensitive OCR after ADP stimulation, % of control, individual replicates (mouse heart mitochondria) | rotenone sensitive OCR after ADP stimulation, individual replicates (mouse heart mitochondria) | rotenone sensitive OCR after ADP stimulation, % of control, average (permeabilized 143B cells) | rotenone sensitive OCR after ADP stimulation, average (permeabilized 143B cells) | rotenone sensitive OCR after ADP stimulation, % of control, individual replicates (permeabilized 143B cells) | rotenone sensitive OCR after ADP stimulation, individual replicates (permeabilized 143B cells) | rotenone sensitive OCR after 6 hours of biguanide exposure, % control, average (143B cells; 143B cells) | rotenone sensitive OCR after 6 hours of biguanide exposure, average (143B cells; 143B cells) | inhibition of rotenone-sensitive respiration (in words) (143B cells) | also measured |
| --- | --- | --- | --- | --- | --- | --- | --- | --- | --- | --- | --- | --- | --- | --- | --- |
| CC(C)N=C(N)N=C(N)N [compound 4, 1-(diaminomethylidene)-2-(propan-2-yl)guanidine] | -1.082 | 30.1 mM | 1.478 | 23.15 % of control | 56.07 | 28.98 % of control and 23.60 % of control and 23.95 % of control and 23.54 % of control and 25.71 % of control and 23.25 % of control and 16.50 % of control and 19.68 % of control | 70.20 and 57.15 and 58.01 and 57.01 and 62.27 and 56.30 and 39.95 and 47.67 | 4.94 % of control | 11.79 | -1.48 % of control and 3.88 % of control and 15.33 % of control and 9.59 % of control and 8.04 % of control and 7.71 % of control and 5.26 % of control and 0.97 % of control and -3.74 % of control and 3.83 % of control | -3.53 and 9.26 and 36.59 and 22.89 and 19.19 and 18.41 and 12.55 and 2.31 and -8.93 and 9.14 | 0.91 % control | 1.07 | inhibit respiration | remaining activity at 620 µM ([1]; inhibitor 0.62 mM, read-out: average % (rate, % of no-inhibitor control)): 103%; remaining activity at 1320 µM ([1]; inhibitor 1.32 mM, read-out: average % (rate, % of no-inhibitor control)): 99.1%; remaining activity at 3120 µM ([1]; inhibitor 3.12 mM, read-out: average % (rate, % of no-inhibitor control)): 93.2%; remaining activity at 6250 µM ([1]; inhibitor 6.25 mM, read-out: average % (rate, % of no-inhibitor control)): 80.8%; remaining activity at 15600 µM ([1]; inhibitor 15.60 mM, read-out: average % (rate, % of no-inhibitor control)): 67.2%; remaining activity at 62500 µM ([1]; inhibitor 62.50 mM, read-out: average % (rate, % of no-inhibitor control)): 30.7%; estimated rate of uptake into mitochondria (143B cells; 143B cells, 3 mM in the extracellular medium): > 1.5 mM/min |
| NC(N)=NC(N)=NCc1ccccc1 [compound 3, 2-benzyl-1-(diaminomethylidene)guanidine] | -1.132 | 3.18 mM | 0.5023 | 28.02 % of control | 67.86 | 41.93 % of control and 30.59 % of control and 30.48 % of control and 24.44 % of control and 22.36 % of control and 21.02 % of control and 20.43 % of control and 32.91 % of control | 101.56 and 74.09 and 73.82 and 59.18 and 54.16 and 50.90 and 49.48 and 79.71 |  |  | 6.07 % of control and 2.51 % of control and 3.63 % of control and 7.99 % of control and 8.80 % of control and 18.64 % of control and 13.94 % of control and 7.14 % of control and 16.57 % of control and 2.18 % of control and 7.53 % of control | 14.50 and 5.99 and 8.67 and 19.08 and 21.01 and 44.51 and 33.29 and 17.05 and 39.56 and 5.21 and 17.98 | 3.11 % control | 3.64 | inhibit respiration | remaining activity at 130 µM ([1]; inhibitor 0.13 mM, read-out: average % (rate, % of no-inhibitor control)): 99.2%; remaining activity at 250 µM ([1]; inhibitor 0.25 mM, read-out: average % (rate, % of no-inhibitor control)): 93.8%; remaining activity at 500 µM ([1]; inhibitor 0.50 mM, read-out: average % (rate, % of no-inhibitor control)): 86.3%; remaining activity at 1000 µM ([1]; inhibitor 1.00 mM, read-out: average % (rate, % of no-inhibitor control)): 85%; remaining activity at 5000 µM ([1]; inhibitor 5.00 mM, read-out: average % (rate, % of no-inhibitor control)): 35.4%; remaining activity at 10000 µM ([1]; inhibitor 10.00 mM, read-out: average % (rate, % of no-inhibitor control)): 25.3% |
| [H]/N=C(\N/C(=N/[H])Nc1ccc(Cl)cc1)NC(C)C [proguanil, reference compound] | -0.7979 |  | -1.959 | 99.28 % of control | 240.45 | 98.46 % of control and 125.69 % of control and 95.82 % of control and 99.56 % of control and 95.47 % of control and 84.72 % of control and 105.21 % of control and 89.32 % of control | 238.46 and 304.41 and 232.07 and 241.13 and 231.22 and 205.20 and 254.80 and 216.32 | 106.21 % of control | 253.55 | 79.43 % of control and 103.02 % of control and 144.04 % of control and 93.57 % of control and 102.53 % of control and 101.42 % of control and 111.43 % of control and 105.36 % of control and 115.13 % of control | 189.61 and 245.92 and 343.85 and 223.38 and 244.75 and 242.11 and 266.00 and 251.51 and 274.84 | 94.32 % control | 110.56 |  | IC50 ([1]; read-out: IC50 (best fit value), Prism variable slope fit, Bottom 0, Top 100): 0.011 mM; inhibition of the OCR (in words) (permeabilized 143B cells; permeabilized 143B cells, biguanide concentration equal to IC50): only limited inhibition |
